Data from PubChem BioAssay (NCI).
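Tested at 5 concentrations; 48 h exposure; 96-well plates; endpoints linearly interpolated, else capped at highest concentration. TGI: concentration producing complete growth inhibition.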

Key:
Assay in all cases: NCI anticancer screen, dose series, 48 h
SK-OV-3 ovarian = tested on: SK-OV-3 ovarian
NCI-H226 lung = tested on: NCI-H226 lung
HL-60(TB) leukemia = tested on: HL-60(TB) leukemia
DMS 114 small cell lung = tested on: DMS 114 small cell lung
OVCAR-5 ovarian = tested on: OVCAR-5 ovarian
HCT-116 colon = tested on: HCT-116 colon
SK-MEL-2 melanoma = tested on: SK-MEL-2 melanoma
KM20L2 colon = tested on: KM20L2 colon
SNB-19 CNS = tested on: SNB-19 CNS
SNB-75 CNS = tested on: SNB-75 CNS
HCT-15 colon = tested on: HCT-15 colon
OVCAR-8 ovarian = tested on: OVCAR-8 ovarian
NCI-H522 lung = tested on: NCI-H522 lung
NCI-H460 lung = tested on: NCI-H460 lung
UACC-62 melanoma = tested on: UACC-62 melanoma
SW-620 colon = tested on: SW-620 colon
A549 NSCLC = tested on: A549 NSCLC
LXFL 529 NSCLC = tested on: LXFL 529 NSCLC
M19-MEL melanoma = tested on: M19-MEL melanoma
SN12C renal = tested on: SN12C renal
TK-10 renal = tested on: TK-10 renal
COLO 205 colon = tested on: COLO 205 colon
M14 melanoma = tested on: M14 melanoma
NCI-H23 lung = tested on: NCI-H23 lung
SF-295 CNS = tested on: SF-295 CNS
U251 CNS = tested on: U251 CNS
KM12 colon = tested on: KM12 colon
HOP-18 NSCLC = tested on: HOP-18 NSCLC
786-0 renal = tested on: 786-0 renal
DLD-1 colon = tested on: DLD-1 colon
ACHN renal = tested on: ACHN renal
SNB-78 CNS = tested on: SNB-78 CNS
CCRF-CEM leukemia = tested on: CCRF-CEM leukemia
OVCAR-4 ovarian = tested on: OVCAR-4 ovarian
A498 renal = tested on: A498 renal
IGROV1 ovarian = tested on: IGROV1 ovarian
HOP-62 NSCLC = tested on: HOP-62 NSCLC
EKVX NSCLC = tested on: EKVX NSCLC
UO-31 renal = tested on: UO-31 renal
MOLT-4 leukemia = tested on: MOLT-4 leukemia
SF-268 CNS = tested on: SF-268 CNS
UACC-257 melanoma = tested on: UACC-257 melanoma
K-562 leukemia = tested on: K-562 leukemia
HCC-2998 colon = tested on: HCC-2998 colon
SF-539 CNS = tested on: SF-539 CNS
HT29 colon = tested on: HT29 colon
LOX IMVI melanoma = tested on: LOX IMVI melanoma
RXF 393 renal = tested on: RXF 393 renal
CAKI-1 renal = tested on: CAKI-1 renal
SK-MEL-5 melanoma = tested on: SK-MEL-5 melanoma
DMS 273 small cell lung = tested on: DMS 273 small cell lung
RPMI-8226 leukemia = tested on: RPMI-8226 leukemia
SK-MEL-28 melanoma = tested on: SK-MEL-28 melanoma
OVCAR-3 ovarian = tested on: OVCAR-3 ovarian
MALME-3M melanoma = tested on: MALME-3M melanoma
HOP-92 NSCLC = tested on: HOP-92 NSCLC
SR leukemia = tested on: SR leukemia

Q: What does the source list for `O=C1c2ccccc2C2(O)Nc3c(ccc4ccccc34)C12O` (stereo unspecified)?
A: TGI (SK-OV-3 ovarian): > 100 µM; TGI (NCI-H226 lung): > 100 µM; TGI (HL-60(TB) leukemia): > 100 µM; TGI (DMS 114 small cell lung): > 100 µM; TGI (OVCAR-5 ovarian): > 100 µM; TGI (HCT-116 colon): > 100 µM; TGI (SK-MEL-2 melanoma): > 100 µM; TGI (KM20L2 colon): > 100 µM; TGI (SNB-19 CNS): > 100 µM; TGI (SNB-75 CNS): > 100 µM; TGI (HCT-15 colon): > 100 µM; TGI (OVCAR-8 ovarian): > 100 µM; TGI (NCI-H522 lung): > 100 µM; TGI (NCI-H460 lung): > 100 µM; TGI (UACC-62 melanoma): > 100 µM; TGI (SW-620 colon): > 100 µM; TGI (A549 NSCLC): > 100 µM; TGI (LXFL 529 NSCLC): > 100 µM; TGI (M19-MEL melanoma): > 100 µM; TGI (SN12C renal): > 100 µM; TGI (TK-10 renal): > 100 µM; TGI (COLO 205 colon): > 100 µM; TGI (M14 melanoma): > 100 µM; TGI (NCI-H23 lung): > 100 µM; TGI (SF-295 CNS): > 100 µM; TGI (U251 CNS): > 100 µM; TGI (KM12 colon): > 100 µM; TGI (HOP-18 NSCLC): > 100 µM; TGI (786-0 renal): > 100 µM; TGI (DLD-1 colon): > 100 µM; TGI (ACHN renal): > 100 µM; TGI (SNB-78 CNS): > 100 µM; TGI (CCRF-CEM leukemia): > 100 µM; TGI (OVCAR-4 ovarian): > 100 µM; TGI (A498 renal): > 100 µM; TGI (IGROV1 ovarian): > 100 µM; TGI (HOP-62 NSCLC): > 100 µM; TGI (EKVX NSCLC): > 100 µM; TGI (UO-31 renal): > 100 µM; TGI (MOLT-4 leukemia): > 100 µM; TGI (SF-268 CNS): > 100 µM; TGI (UACC-257 melanoma): > 100 µM; TGI (K-562 leukemia): > 100 µM; TGI (HCC-2998 colon): > 100 µM; TGI (SF-539 CNS): > 100 µM; TGI (HT29 colon): > 100 µM; TGI (LOX IMVI melanoma): > 100 µM; TGI (RXF 393 renal): > 100 µM; TGI (CAKI-1 renal): > 100 µM; TGI (SK-MEL-5 melanoma): > 100 µM; TGI (DMS 273 small cell lung): > 100 µM; TGI (RPMI-8226 leukemia): > 100 µM; TGI (SK-MEL-28 melanoma): > 100 µM; TGI (OVCAR-3 ovarian): > 100 µM; TGI (MALME-3M melanoma): > 100 µM

Q: How did the TGI (SK-OV-3 ovarian) turn out when `C=C1CC(c2ccc(O)c(OC)c2)Oc2c(OC)cccc21` (stereo unspecified) was run?
A: > 100 µM

Q: What about the TGI (NCI-H226 lung) of the same compound?
A: > 100 µM

Q: What about the TGI (HL-60(TB) leukemia) of the same compound?
A: 49.9 µM

Q: And the TGI (DMS 114 small cell lung)?
A: 56.1 µM

Q: And the TGI (OVCAR-5 ovarian)?
A: > 100 µM

Q: What about the TGI (HCT-116 colon) of the same compound?
A: > 100 µM

Q: What about the TGI (KM20L2 colon) of the same compound?
A: > 100 µM

Q: And the TGI (SNB-19 CNS)?
A: > 100 µM

Q: And the TGI (SNB-75 CNS)?
A: > 100 µM

Q: And the TGI (HOP-92 NSCLC)?
A: 53.1 µM

Q: And the TGI (HCT-15 colon)?
A: > 100 µM

Q: What about the TGI (OVCAR-8 ovarian) of the same compound?
A: > 100 µM

Q: And the TGI (NCI-H522 lung)?
A: 49.5 µM

Q: What about the TGI (NCI-H460 lung) of the same compound?
A: > 100 µM

Q: And the TGI (UACC-62 melanoma)?
A: > 100 µM

Q: What about the TGI (SW-620 colon) of the same compound?
A: > 100 µM

Q: What about the TGI (A549 NSCLC) of the same compound?
A: > 100 µM

Q: And the TGI (LXFL 529 NSCLC)?
A: > 100 µM

Q: And the TGI (M19-MEL melanoma)?
A: > 100 µM

Q: And the TGI (SN12C renal)?
A: > 100 µM

Q: And the TGI (TK-10 renal)?
A: > 100 µM

Q: And the TGI (COLO 205 colon)?
A: > 100 µM

Q: What about the TGI (M14 melanoma) of the same compound?
A: > 100 µM

Q: And the TGI (NCI-H23 lung)?
A: > 100 µM

Q: And the TGI (SF-295 CNS)?
A: > 100 µM

Q: What about the TGI (U251 CNS) of the same compound?
A: > 100 µM

Q: What about the TGI (KM12 colon) of the same compound?
A: > 100 µM

Q: What about the TGI (HOP-18 NSCLC) of the same compound?
A: > 100 µM

Q: And the TGI (786-0 renal)?
A: > 100 µM

Q: What about the TGI (DLD-1 colon) of the same compound?
A: > 100 µM

Q: What about the TGI (ACHN renal) of the same compound?
A: > 100 µM

Q: What about the TGI (SNB-78 CNS) of the same compound?
A: > 100 µM

Q: What about the TGI (CCRF-CEM leukemia) of the same compound?
A: 93.7 µM

Q: And the TGI (OVCAR-4 ovarian)?
A: > 100 µM

Q: And the TGI (IGROV1 ovarian)?
A: > 100 µM

Q: And the TGI (HOP-62 NSCLC)?
A: > 100 µM

Q: And the TGI (EKVX NSCLC)?
A: > 100 µM

Q: What about the TGI (UO-31 renal) of the same compound?
A: > 100 µM

Q: What about the TGI (SR leukemia) of the same compound?
A: 61.3 µM

Q: And the TGI (MOLT-4 leukemia)?
A: > 100 µM

Q: What about the TGI (SF-268 CNS) of the same compound?
A: > 100 µM

Q: What about the TGI (UACC-257 melanoma) of the same compound?
A: > 100 µM

Q: And the TGI (K-562 leukemia)?
A: 64.8 µM

Q: What about the TGI (HCC-2998 colon) of the same compound?
A: > 100 µM

Q: And the TGI (SF-539 CNS)?
A: 52.2 µM

Q: What about the TGI (HT29 colon) of the same compound?
A: > 100 µM

Q: What about the TGI (CAKI-1 renal) of the same compound?
A: > 100 µM

Q: And the TGI (SK-MEL-5 melanoma)?
A: > 100 µM

Q: What about the TGI (DMS 273 small cell lung) of the same compound?
A: 55.2 µM

Q: What about the TGI (SK-MEL-28 melanoma) of the same compound?
A: > 100 µM

Q: What about the TGI (OVCAR-3 ovarian) of the same compound?
A: > 100 µM
